The record followed here is patent publication US8143293B2, “Kinase inhibitors useful for the treatment of myleoprolific diseases and other proliferative diseases” (Deciphera Pharmaceuticals, LLC, priority 2007, dated 2012).

pIC50: −log10 of the molar value.

The target in assay [1] is T1, BaF3 cells transfected with wild type p210 BCR-Abl (Homo sapiens, UniProt P00519).
T1 construct: fused on or other part: P11274 (Breakpoint cluster region protein)
The assay can be described thus: Ba/F3 p210 whole cell proliferation assay. It counts as cell-based. Particulars: 72 hours, Cell Titer Blue; read-out: Whole Cell Antiproliferation IC50, Ba/F3 p210 whole cell proliferation assay. The procedure: (§1) BaF3 cells (parental or transfected with the following: wild type p210 BCR-Abl and T315I p210 BCR-Abl was obtained from Professor Richard Van Etten (New England Medical Center, Boston, Mass.). Briefly, cells were grown in RPMI 1640 supplemented with 10% characterized fetal bovine serum (HyClone, Logan, Utah) at 37 degrees Celsius, 5% CO2, 95% humidity. Cells were allowed to expand until reaching 80% saturation at which point they were subcultured or harvested for assay use.
(§2) A serial dilution of test compound was dispensed into a 96 well black clear bottom plate (Corning, Corning, N.Y.). For each cell line, three thousand cells were added per well in complete growth medium. Plates were incubated for 72 hours at 37 degrees Celsius, 5% CO2, 95% humidity. At the end of the incubation period Cell Titer Blue (Promega, Madison, Wis.) was added to each well and an additional 4.5 hour incubation at 37 degrees Celsius, 5% CO2, 95% humidity was performed. Plates were then read on a BMG Fluostar Optima (BMG, Durham, N.C.) using an excitation of 544 nm and an emission of 612 nm. Data was analyzed using Prism software (Graphpad, San Diego, Calif.) to calculate IC50's.

In assay [2] the target is T2, C-Met kinase (SEQ ID NO:10) (Homo sapiens, UniProt P08581).
T2 construct: 956-1390, from Invitrogen, catalogue #PV3143; His6 (N-terminal leader MSYYHHHHHH... with TEV and thrombin sites) (N); purchased Invitrogen PV3143
T2 sequence (P08581 with tags, fused parts or gaps): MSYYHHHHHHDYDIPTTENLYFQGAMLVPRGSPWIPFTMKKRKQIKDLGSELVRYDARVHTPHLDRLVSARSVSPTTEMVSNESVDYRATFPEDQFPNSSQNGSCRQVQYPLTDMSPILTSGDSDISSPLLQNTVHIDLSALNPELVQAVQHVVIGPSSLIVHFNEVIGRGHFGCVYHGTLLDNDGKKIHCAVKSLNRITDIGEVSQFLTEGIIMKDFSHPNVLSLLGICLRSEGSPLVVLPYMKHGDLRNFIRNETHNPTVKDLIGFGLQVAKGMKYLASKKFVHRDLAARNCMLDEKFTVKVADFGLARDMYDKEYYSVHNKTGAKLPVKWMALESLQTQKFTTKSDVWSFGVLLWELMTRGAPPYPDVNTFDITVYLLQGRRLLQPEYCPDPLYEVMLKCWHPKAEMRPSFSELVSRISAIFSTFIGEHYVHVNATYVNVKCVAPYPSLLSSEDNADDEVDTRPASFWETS
The assay can be described thus: C-Met kinase (SEQ ID NO:10) assay, pyruvate kinase/lactate dehydrogenase coupled. The settings on record: 0.5 h preincubation, ATP 100 μM; read-out: Biochemical IC50, c-Met Enzyme Assay. The procedure:
C-Met Kinase (SEQ ID NO:10) Assay
Activity of C-Met kinase (SEQ ID NO:10) was determined by following the production of ADP from the kinase reaction through coupling with the pyruvate kinase/lactate dehydrogenase system (e.g., Schindler, et al. Science (2000) 289, 1938-1942). In this assay, the oxidation of NADH (thus the decrease at A340 nm) was continuously monitored spectrophometrically. The reaction mixture (100 μl) contained C-Met (c-Met residues; 956-1390, from Invitrogen, catalogue #PV3143, […]), polyE4Y (1 mg/ml), MgCl2 (10 mM), pyruvate kinase (4 units), lactate dehydrogenase (0.7 units), phosphoenol pyruvate (1 mM), and NADH (0.28 mM) in 90 mM Tris buffer containing 0.25 mM DTT, 0.2% octyl-glucoside and 1% DMSO, pH 7.5. Test compounds were incubated with C-Met (SEQ ID NO:10) and other reaction reagents at 22° C. for 0.5 h before ATP (100 μM) was added to start the reaction. The absorption at 340 nm was monitored continuously for 2 hours at 30° C. on Polarstar Optima plate reader (BMG). The reaction rate was calculated using the 1.0 to 2.0 h time frame. Percent inhibition was obtained by comparison of reaction rate with that of a control (i.e. with no test compound). IC50 values were calculated from a series of percent inhibition values determined at a range of inhibitor concentrations using software routines as implemented in the GraphPad Prism software package.

Assay [3] deals with T3, Abl kinase (SEQ ID NO: 1) (Homo sapiens, UniProt P00519).
T3 construct: purchased deCode Genetics
T3 sequence (P00519 with tags, fused parts or gaps): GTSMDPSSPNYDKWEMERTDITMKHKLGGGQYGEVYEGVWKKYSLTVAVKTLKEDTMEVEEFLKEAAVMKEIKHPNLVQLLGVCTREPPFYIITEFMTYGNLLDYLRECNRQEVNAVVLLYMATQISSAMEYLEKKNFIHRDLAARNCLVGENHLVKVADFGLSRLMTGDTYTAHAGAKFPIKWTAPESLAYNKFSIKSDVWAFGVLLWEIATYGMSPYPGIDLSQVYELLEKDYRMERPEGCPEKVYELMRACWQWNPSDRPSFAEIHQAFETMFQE
The assay is described as follows: Abl kinase (SEQ ID NO:1) assay, pyruvate kinase/lactate dehydrogenase coupled. The settings on record: 2 h preincubation, ATP 500 μM; read-out: Biochemical IC50, Abl Enzyme Assay. The protocol:
Abl Kinase (SEQ ID NO:1) Assay
Activity of Abl kinase (SEQ ID NO: 1) was determined by following the production of ADP from the kinase reaction through coupling with the pyruvate kinase/lactate dehydrogenase system (e.g., Schindler, et al. Science (2000) 289, 1938-1942). In this assay, the oxidation of NADH (thus the decrease at A340 nm) was continuously monitored spectrophometrically. The reaction mixture (100 μl) contained Abl kinase (1 nM. Abl from deCode Genetics), peptide substrate (EAIYAAPFAKKK, 0.2 mM), MgCl2 (10 mM), pyruvate kinase (4 units), lactate dehydrogenase (0.7 units), phosphoenol pyruvate (1 mM), and NADH (0.28 mM) in 90 mM Tris buffer containing 0.2% octyl-glucoside and 3.5% DMSO, pH 7.5. Test compounds were incubated with Abl (SEQ ID NO:1) and other reaction reagents at 30° C. for 2 h before ATP (500 μM) was added to start the reaction. The absorption at 340 nm was monitored continuously for 2 hours at 30° C. on Polarstar Optima plate reader (BMG). The reaction rate was calculated using the 1.0 to 2.0 h time frame. Percent inhibition was obtained by comparison of reaction rate with that of a control (i.e. with no test compound). IC50 values were calculated from a series of percent inhibition values determined at a range of inhibitor concentrations using software routines as implemented in the GraphPad Prism software package.

Assay [4] addresses T4, c-Kit kinase (SEQ ID NO:9) (Homo sapiens, UniProt P10721).
T4 construct: contained c-Kit (cKIT residues T544-V976, from ProQinase, 5.4 nM); purchased ProQinase
The assay is described as follows: C-Kit kinase (SEQ ID NO:9) assay, pyruvate kinase/lactate dehydrogenase coupled. Particulars: <2 min preincubation, ATP 200 μM; read-out: Biochemical IC50, c-Kit Enzyme Assay. The procedure:
C-Kit Kinase (SEQ ID NO:9) Assay
Activity of c-Kit kinase (SEQ ID NO:9) was determined by following the production of ADP from the kinase reaction through coupling with the pyruvate kinase/lactate dehydrogenase system (e.g., Schindler, et al. Science (2000) 289, 1938-1942). In this assay, the oxidation of NADH (thus the decrease at A340 nm) was continuously monitored spectrophometrically. The reaction mixture (100 μl) contained c-Kit (cKIT residues T544-V976, from ProQinase, 5.4 nM), polyE4Y (1 mg/ml), MgCl2 (10 mM), pyruvate kinase (4 units), lactate dehydrogenase (0.7 units), phosphoenol pyruvate (1 mM), and NADH (0.28 mM) in 90 mM Tris buffer containing 0.2% octyl-glucoside and 1% DMSO, pH 7.5. Test compounds were incubated with […] (SEQ ID NO:9) and other reaction reagents at 22° C. for <2 min before ATP (200 μM) was added to start the reaction. The absorption at 340 nm was monitored continuously for 0.5 hours at 30° C. on Polarstar Optima plate reader (BMG). The reaction rate was calculated using the 0 to 0.5 h time frame. Percent inhibition was obtained by comparison of reaction rate with that of a control (i.e. with no test compound). IC50 values were calculated from a series of percent inhibition values determined at a range of inhibitor concentrations using software routines as implemented in the GraphPad Prism software package.

In assay [5] the target is T5, BaF3 cells transfected with T315I p210 BCR-Abl (Homo sapiens, UniProt P00519, T315I, cells depend on it).
T5 construct: fused on or other part: P11274 (Breakpoint cluster region protein)
The assay is described as follows: Ba/F3 p210 T315I whole cell proliferation assay. The assay is classed as cell-based. Particulars: 72 hours, Cell Titer Blue; read-out: Whole Cell Antiproliferation IC50, Ba/F3 p210 T315I whole cell proliferation assay. The protocol: as §1, §2

T4 sequence (P10721 with tags, fused parts or gaps): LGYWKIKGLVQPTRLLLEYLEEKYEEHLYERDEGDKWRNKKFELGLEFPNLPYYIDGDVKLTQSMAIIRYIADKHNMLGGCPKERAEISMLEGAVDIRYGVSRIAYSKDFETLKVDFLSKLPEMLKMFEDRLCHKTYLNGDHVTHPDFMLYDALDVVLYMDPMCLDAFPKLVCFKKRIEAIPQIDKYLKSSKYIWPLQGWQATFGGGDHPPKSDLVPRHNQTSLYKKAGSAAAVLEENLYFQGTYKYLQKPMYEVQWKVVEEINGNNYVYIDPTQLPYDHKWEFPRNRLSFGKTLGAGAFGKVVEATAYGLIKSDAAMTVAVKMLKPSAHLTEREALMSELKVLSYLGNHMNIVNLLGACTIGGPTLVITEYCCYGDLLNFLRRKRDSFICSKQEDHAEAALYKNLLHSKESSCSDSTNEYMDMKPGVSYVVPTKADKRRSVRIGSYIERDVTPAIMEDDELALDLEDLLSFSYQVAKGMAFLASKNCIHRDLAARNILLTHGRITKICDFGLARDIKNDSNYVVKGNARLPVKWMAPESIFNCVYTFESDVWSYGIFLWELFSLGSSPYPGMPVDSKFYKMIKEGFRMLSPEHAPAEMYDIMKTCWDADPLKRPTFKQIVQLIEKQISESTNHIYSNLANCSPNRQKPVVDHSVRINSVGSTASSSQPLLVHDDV

As to `Cn1cc(-c2cc(Oc3ccc(NC(=O)Nc4noc5ccccc45)c(F)c3)ccn2)cn1` [Example 24, 1-(benzo[d]isoxazol-3-yl)-3-(2-fluoro-4-(2-(1-methyl-1H-pyrazol-4-yl)pyridin-4-yloxy)phenyl)urea], the GI50 in assay [1] was less than 100 nM; in assay [5] it was less than 100000 nM. In addition, the pIC50 (commonly −log10 of the IC50, conventionally taken in molar units) was more than 5.00 in assay [2], more than 7.00 in assay [3] and more than 7.00 in assay [4].
